Experiments:
[1] = test system: antibodies in sera from SARS patients (sera 1a, 1b, 2, 6, 37, 62, London, SARS-yellow, SARS-green); format: binding, human; parameters: Binding of serum 6 to linear peptides of protein X1 of SARS-CoV Urbani / Binding of serum 37 to linear peptides of protein X1 of SARS-CoV Urbani / Binding of serum 6 to looped/cyclic peptide (PEPSCAN-ELISA) / Binding of serum 37 to looped/cyclic peptide (PEPSCAN-ELISA) / Binding of serum 37 to looped/cyclic peptides of protein X1 of SARS-CoV Urbani / Binding of serum 6 to linear peptides of protein X2 / Binding of serum 37 to linear peptides of protein X2 / Binding of serum 37 to looped/cyclic peptides of protein X2 of SARS-CoV Urbani / Binding of serum 6 to linear peptides of protein M of SARS-CoV Urbani / Binding of serum 37 to linear peptides of protein M of SARS-CoV Urbani / Binding of serum 6 to looped/cyclic peptides of protein M of SARS-CoV Urbani / Binding of serum 37 to looped/cyclic peptides of protein M of SARS-CoV Urbani / Binding of serum 6 to linear peptides of protein X3 of SARS-CoV Urbani / Binding of serum 37 to linear peptides of protein X3 of SARS-CoV Urbani / Binding of serum 37 to looped/cyclic peptides of protein X3 of SARS-CoV Urbani / Binding of serum 6 to linear peptides of protein X4 of SARS-CoV Urbani / Binding of serum 37 to linear peptides of protein X4 of SARS-CoV Urbani / Binding of serum 37 to looped/cyclic peptides of protein X4 of SARS-CoV Urbani / Binding of serum 6 to linear peptides of protein X5 of SARS-CoV Urbani / Binding of serum 37 to linear peptides of protein X5 of SARS-CoV Urbani / Binding of serum 37 to looped/cyclic peptides of protein X5 of SARS-CoV Urbani / Binding of serum 6 to linear peptides of protein N of SARS-CoV Urbani / Binding of serum 37 to linear peptides of protein N of SARS-CoV Urbani / Binding of serum 6 to linear peptide (PEPSCAN-ELISA) / Binding of serum 1a to looped/cyclic peptides of protein N of SARS-CoV Urbani / Binding of serum 1b to looped/cyclic peptides of protein N of SARS-CoV Urbani / Binding of serum 2 to looped/cyclic peptides of protein N of SARS-CoV Urbani / Binding of serum 6 to looped/cyclic peptides of protein N of SARS-CoV Urbani / Binding of serum 37 to looped/cyclic peptides of protein N of SARS-CoV Urbani / Binding of serum 62 to looped/cyclic peptides of protein N of SARS-CoV Urbani / Binding of serum London to looped/cyclic peptides of protein N of SARS-CoV Urbani / Binding of serum SARS-green to looped/cyclic peptides of protein N of SARS-CoV Urbani: unit not given here
[2] = test system: control sera (pooled serum of ten healthy LUMC hospital workers; commercial negative donor pooled serum from the Dutch bloodbank); format: binding, human; parameters: Binding of Control serum LUMC to linear peptides / Binding of Control serum Blood-bank to linear peptides / Binding of Control serum LUMC to looped peptides / Binding of Control Serum Blood-Bank to Looped peptides / Binding of Control serum LUMC to linear peptides of the protein M of SARS-CoV Urbani / Binding of Control serum Blood-bank to linear peptides of the protein M of SARS-CoV Urbani / Binding of Control serum LUMC to looped peptides of the protein M of SARS-CoV Urbani / Binding of Control Serum Blood-Bank to Looped peptides of the protein M of SARS-CoV Urbani: unit not given here
[3] = test system: rabbit serum obtained by immunizing a rabbit with the SARS-CoV strain Frankfurt 1; format: binding; parameters: Binding of a rabbit serum to linear peptides / Binding of a rabbit serum to looped peptides / Rabbit serum linear peptides / Rabbit serum looped peptides / Binding of a rabbit serum to linear peptides of protein N of SARS-CoV Urbani (Rabbit serum linear peptides) / Binding of a rabbit serum to looped/cyclic peptides of protein N of SARS-CoV Urbani (Rabbit serum looped peptides): unit not given here

With YFVASFRLFARTRSM the “Binding of serum 1a to linear peptides of protein M of SARS-CoV Urbani” value [1] was 0.6, the “Binding of serum 1b to linear peptides of protein M of SARS-CoV Urbani” value [1] was 0.4 and the “Binding of serum 2 to linear peptides of protein M of SARS-CoV Urbani” value [1] was 0.4. The “Binding of serum 6 to linear peptides of protein M of SARS-CoV Urbani” value [1] was 0.4, the “Binding of serum 37 to linear peptides of protein M of SARS-CoV Urbani” value [1] was 0.4 and the “Binding of serum 62 to linear peptides of protein M of SARS-CoV Urbani” value [1] was 0.6. The “Binding of serum London to linear peptides of protein M of SARS-CoV Urbani” value [1] was 0.3, the “Binding of serum SARS-green to linear peptides of protein M of SARS-CoV Urbani” value [1] was 0.3 and the “Binding of serum SARS-yellow to linear peptides of protein M of SARS-CoV Urbani” value [1] was 0.1. The “Recognition of the peptide by sera of SARS-CoV infected individuals, and form (linear, looped/cyclic) in which it is recognized” value [1] was “recognized in looped/cyclic form”, the “Binding of Control Serum Blood-Bank to Looped peptides of the protein M of SARS-CoV Urbani” value [2] was 0.9 and the “Binding of Control serum Blood-bank to linear peptides of the protein M of SARS-CoV Urbani” value [2] was 0.6. For the same sequence, the “Binding of Control serum LUMC to linear peptides of the protein M of SARS-CoV Urbani” value [2] was 0.3, the “Binding of Control serum LUMC to looped peptides of the protein M of SARS-CoV Urbani” value [2] was 0.7 and the “Rabbit serum linear peptides” value [3] was 0.6. For the same sequence, the “Rabbit serum looped peptides” value [3] was 0.8.
For TQITTDTGIENATFF, the “Binding of serum 1a to linear peptides of protein X1 of SARS-CoV Urbani” value [1] was 0.7, the “Binding of serum 1a to looped/cyclic peptides of protein X1 of SARS-CoV Urbani” value [1] was 0.5 and the “Binding of serum 1b to linear peptides of protein X1 of SARS-CoV Urbani” value [1] was 0.6. The “Binding of serum 1b to looped/cyclic peptides of protein X1 of SARS-CoV Urbani” value [1] was 0.3, the “Binding of serum 2 to linear peptides of protein X1 of SARS-CoV Urbani” value [1] was 0.5 and the “Binding of serum 2 to looped/cyclic peptides of protein X1 of SARS-CoV Urbani” value [1] was 0.2. For the same sequence, the “Binding of serum 6 to linear peptides of protein X1 of SARS-CoV Urbani” value [1] was 0.6, the “Binding of serum 6 to looped/cyclic peptides of protein X1 of SARS-CoV Urbani” value [1] was 0.3 and the “Binding of serum 37 to linear peptides of protein X1 of SARS-CoV Urbani” value [1] was 0.7. For the same sequence, the “Binding of serum 37 to looped/cyclic peptides of protein X1 of SARS-CoV Urbani” value [1] was 0.4, the “Binding of serum 62 to linear peptides of protein X1 of SARS-CoV Urbani” value [1] was 0.5 and the “Binding of serum 62 to looped/cyclic peptides of protein X1 of SARS-CoV Urbani” value [1] was 0.5. For the same sequence, the “Binding of serum London to linear peptides of protein X1 of SARS-CoV Urbani” value [1] was 0.3, the “Binding of serum London to looped/cyclic peptides of protein X1 of SARS-CoV Urbani” value [1] was 0.2 and the “Binding of serum SARS-green to linear peptides of protein X1 of SARS-CoV Urbani” value [1] was 0.7. The “Binding of serum SARS-green to looped/cyclic peptides of protein X1 of SARS-CoV Urbani” value [1] was 0.3, the “Binding of serum SARS-yellow to linear peptides of protein X1 of SARS-CoV Urbani” value [1] was 0.5 and the “Binding of serum SARS-yellow to looped/cyclic peptides of protein X1 of SARS-CoV Urbani” value [1] was 0.4. The “Binding of Control Serum Blood-Bank to Looped peptides” value [2] was 0.5, the “Binding of Control serum Blood-bank to linear peptides” value [2] was 0.6 and the “Binding of Control serum LUMC to linear peptides” value [2] was 0.8. The “Binding of Control serum LUMC to looped peptides” value [2] was 0.5, the “Binding of a rabbit serum to linear peptides” value [3] was 0.1 and the “Binding of a rabbit serum to looped peptides” value [3] was 0.6.
LYKGFQFICNLLLLF was tested, and the “Binding of serum 1a to linear peptides of protein X1 of SARS-CoV Urbani” value [1] was 0.6, the “Binding of serum 1a to looped/cyclic peptide (PEPSCAN-ELISA)” value [1] was 0.5 and the “Binding of serum 1b to linear peptides of protein X1 of SARS-CoV Urbani” value [1] was 0.5. The “Binding of serum 1b to looped/cyclic peptide (PEPSCAN-ELISA)” value [1] was 0.3, the “Binding of serum 2 to linear peptides of protein X1 of SARS-CoV Urbani” value [1] was 0.5 and the “Binding of serum 2 to looped/cyclic peptide (PEPSCAN-ELISA)” value [1] was 0.3. For the same sequence, the “Binding of serum 6 to linear peptides of protein X1 of SARS-CoV Urbani” value [1] was 0.4, the “Binding of serum 6 to looped/cyclic peptide (PEPSCAN-ELISA)” value [1] was 1.5 and the “Binding of serum 37 to linear peptides of protein X1 of SARS-CoV Urbani” value [1] was 0.5. For the same sequence, the “Binding of serum 37 to looped/cyclic peptide (PEPSCAN-ELISA)” value [1] was 0.4, the “Binding of serum 62 to linear peptides of protein X1 of SARS-CoV Urbani” value [1] was 0.4 and the “Binding of serum 62 to looped/cyclic peptide (PEPSCAN-ELISA)” value [1] was 0.5. For the same sequence, the “Binding of serum London to linear peptides of protein X1 of SARS-CoV Urbani” value [1] was 0.2, the “Binding of serum London to looped/cyclic peptide (PEPSCAN-ELISA)” value [1] was 1.7 and the “Binding of serum SARS-green to linear peptides of protein X1 of SARS-CoV Urbani” value [1] was 0.2. The “Binding of serum SARS-green to looped/cyclic peptide (PEPSCAN-ELISA)” value [1] was 0.2, the “Binding of serum SARS-yellow to linear peptides of protein X1 of SARS-CoV Urbani” value [1] was 0.4 and the “Binding of serum SARS-yellow to looped/cyclic peptide (PEPSCAN-ELISA)” value [1] was 0.3. For the same sequence, the “Binding of Control Serum Blood-Bank to Looped peptides” value [2] was 0.4, the “Binding of Control serum Blood-bank to linear peptides” value [2] was 0.5 and the “Binding of Control serum LUMC to linear peptides” value [2] was 0.5. The “Binding of Control serum LUMC to looped peptides” value [2] was 0.6, the “Binding of a rabbit serum to linear peptides” value [3] was 0.2 and the “Binding of a rabbit serum to looped peptides” value [3] was 0.3.

Reference: patent publication US20070128217A1 (priority 2003, published 2007)
